For the test, the target named is T1, His6 tagged human recombinant FABP4 (Homo sapiens, UniProt P15090).
T1 construct: purchased Cayman Chemicals 10009549
The test can be described thus: FABP4 TR-FRET assay: displacement of BODIPY FL C12 fatty acid. To be noted: triplicates, inhibition of BODIPY FL C12 binding; for inhibition at 1 µM: 1 μM compound; for inhibition at 10 µM: 10 μM compound. The essentials:
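TR-FRET with a Tb anti-His6 antibody donor and BODIPY FL C12 as acceptor; compounds came from 0.362 and 0.0362 mM DMSO stocks. Protein (83 nM) and antibody (49.6 nM) solutions were premixed 30 min on ice in 25 mM Tris pH 7.4 with γ-globulins, NP-40 and DTT. Incubation was 10 min at room temperature; inhibition came from the 520/615 nm ratio.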
(In TR-FRET formats the signal depends on donor and acceptor labels being close together.)

T1 sequence (P15090 whole entry): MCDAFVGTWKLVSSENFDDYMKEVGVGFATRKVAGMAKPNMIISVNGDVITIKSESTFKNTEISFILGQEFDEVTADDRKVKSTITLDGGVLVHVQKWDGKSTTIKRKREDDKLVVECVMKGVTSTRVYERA

With `CCCCCCC1CCc2c(n(Cc3ccccc3C#N)c3c(C(=O)O)cccc23)C1` (stereo not shown) [9-[(2-cyanophenyl)methyl]-2-hexyl-2,3,4,9-tetrahydro-1H-carbazole-8-carboxylic acid], the inhibition (in general, the relative decrease from the control value, in per cent) at 1 µM came out at 87.3% and the inhibition at 10 µM amounted to 92.7%.

On to `CCCCCC1CCCc2c(n(Cc3cccc(C(N)=O)c3)c3c(C(=O)O)cccc23)C1` (stereo not shown) [5-[(3-carbamoylphenyl)methyl]-7-pentyl-5H,6H,7H,8H,9H,10H-cyclohepta[b]indole-4-carboxylic acid], for which the inhibition at 1 µM was 91.2% and the inhibition at 10 µM stood at 93.3%.

Take `CCCCCOC1CCCc2c1n(Cc1cccc(C#N)c1)c1c(C(=O)O)cccc21` (stereo not shown) [9-[(3-cyanophenyl)methyl]-1-(pentyloxy)-2,3,4,9-tetrahydro-1H-carbazole-8-carboxylic acid]: the inhibition at 1 µM was found to be 7.56% and the inhibition at 10 µM was 63.3%.

Consider `CCCCC1CCCc2c(n(Cc3cccc(OC)c3)c3c(C(=O)O)cccc23)C1` (stereo not shown) [7-butyl-5-[(3-methoxyphenyl)methyl]-5H,6H,7H,8H,9H,10H-cyclohepta[b]indole-4-carboxylic acid], for which the inhibition at 1 µM is 91.7% and the inhibition at 10 µM was found to be 86.5%.

With `CCCCC1CCCc2c(n(Cc3cccc(C(N)=O)c3)c3c(C(=O)NCC(=O)O)cccc23)C1` (stereo not shown) [2-({7-butyl-5-[(3-carbamoylphenyl)methyl]-5H,6H,7H,8H,9H,10H-cyclohepta[b]indol-4-yl}formamido)acetic acid], the inhibition at 1 µM was found to be 59% and the inhibition at 10 µM came out at 90.2%.

With `CCCCCCCCC1CCCc2c(n(Cc3cccc(C#N)c3)c3c(C(=O)O)cccc23)C1` (stereo not shown) [5-[(3-cyanophenyl)methyl]-7-octyl-5H,6H,7H,8H,9H,10H-cyclohepta[b]indole-4-carboxylic acid], the inhibition at 1 µM came to 94.5% and the inhibition at 10 µM turned out to be 93%.

Take `CCCCC1CCc2c(c3cccc(C(=O)O)c3n2Cc2cccc(C#N)c2)C1` (stereo not shown) [3-butyl-9-[(3-cyanophenyl)methyl]-2,3,4,9-tetrahydro-1H-carbazole-8-carboxylic acid]: the inhibition at 1 µM amounted to 35.8% and the inhibition at 10 µM is 81.1%.

Turning to `CCCCCOC1CCCc2c1n(Cc1cccc(C(N)=O)c1)c1c(C(=O)O)cccc21` (stereo not shown) [9-[(3-carbamoylphenyl)methyl]-1-(pentyloxy)-2,3,4,9-tetrahydro-1H-carbazole-8-carboxylic acid], the inhibition at 1 µM is 81.9% and the inhibition at 10 µM is 100%.

In the case of `CCCCC1CCCc2c(n(Cc3ccc(C(N)=O)cc3)c3c(C(=O)O)cccc23)C1` (stereo not shown) [7-butyl-5-[(4-carbamoylphenyl)methyl]-5H,6H,7H,8H,9H,10H-cyclohepta[b]indole-4-carboxylic acid], the inhibition at 1 µM was determined as 92.6% and the inhibition at 10 µM is 95.5%.

As for `CCCCCCC1CCCc2c(n(Cc3ccnc(F)c3)c3c(C(=O)O)cccc23)C1` (stereo not shown) [5-[(2-fluoropyridin-4-yl)methyl]-7-hexyl-5H,6H,7H,8H,9H,10H-cyclohepta[b]indole-4-carboxylic acid], the inhibition at 1 µM amounted to 92.8% and the inhibition at 10 µM was found to be 90.4%.

As for `CCCCCC1Cc2c(n(Cc3cccc(C(N)=O)c3)c3c(C(=O)O)cccc23)C1` (stereo not shown) [4-[(3-carbamoylphenyl)methyl]-2-pentyl-1H,2H,3H,4H-cyclopenta[b]indole-5-carboxylic acid], the inhibition at 1 µM is 86.9% and the inhibition at 10 µM stood at 93.1%.

In the case of `CCCCCCC1CCCc2c(n(Cc3cccc(C)c3)c3c(C(=O)O)cccc23)C1` (stereo not shown) [7-hexyl-5-[(3-methylphenyl)methyl]-5H,6H,7H,8H,9H,10H-cyclohepta[b]indole-4-carboxylic acid], the inhibition at 1 µM is 98.6% and the inhibition at 10 µM was 94.7%.

On to `CCCCC1CCc2c1n(Cc1cccc(C#N)c1)c1c(C(=O)O)cccc21` (stereo not shown) [3-butyl-4-[(3-cyanophenyl)methyl]-1H,2H,3H,4H-cyclopenta[b]indole-5-carboxylic acid], for which the inhibition at 1 µM is 85.1% and the inhibition at 10 µM turned out to be 98.5%.

Turning to `CCCCC1Cc2c(n(Cc3cccc(C#N)c3)c3c(C(=O)O)cccc23)C1` (stereo not shown) [2-butyl-4-[(3-cyanophenyl)methyl]-1H,2H,3H,4H-cyclopenta[b]indole-5-carboxylic acid], the inhibition at 1 µM stood at 62.1% and the inhibition at 10 µM amounted to 85.1%.

With `CCCCC1CCCc2c(n(Cc3cccc(C(N)=O)c3)c3c(C(=O)O)cccc23)C1` (stereo not shown) [7-butyl-5-[(3-carbamoylphenyl)methyl]-5H,6H,7H,8H,9H,10H-cyclohepta[b]indole-4-carboxylic acid], the inhibition at 1 µM was determined as 89.4% and the inhibition at 10 µM worked out at 117%.

Turning to `CCCCCCC1CCc2c(n(Cc3ccc(C)cc3)c3c(C(=O)O)cccc23)C1` (stereo not shown) [2-hexyl-9-[(4-methylphenyl)methyl]-2,3,4,9-tetrahydro-1H-carbazole-8-carboxylic acid], the inhibition at 1 µM turned out to be 74.3% and the inhibition at 10 µM is 88.5%.

Take `CCCCCCC1CCCc2c(n(Cc3ccc(C)cc3)c3c(C(=O)O)cccc23)C1` (stereo not shown) [7-hexyl-5-[(4-methylphenyl)methyl]-5H,6H,7H,8H,9H,10H-cyclohepta[b]indole-4-carboxylic acid]: the inhibition at 1 µM came out at 95.6% and the inhibition at 10 µM came out at 91.7%.

Take `CCC1CCCCc2c1c1cccc(C(=O)O)c1n2Cc1cccc(C(N)=O)c1` (stereo not shown) [5-[(3-carbamoylphenyl)methyl]-10-ethyl-5H,6H,7H,8H,9H,10H-cyclohepta[b]indole-4-carboxylic acid]: the inhibition at 1 µM was 86.4% and the inhibition at 10 µM was 98%.

Turning to `CCC1CCCc2c1n(Cc1cccc(C(=O)O)c1)c1c(C(=O)O)cccc21` (stereo not shown) [9-[(3-carboxyphenyl)methyl]-1-ethyl-2,3,4,9-tetrahydro-1H-carbazole-8-carboxylic acid], the inhibition at 1 µM came to 39.6% and the inhibition at 10 µM came to 78.5%.

In the case of `CCCCCC1CCc2c(c3cccc(C(=O)O)c3n2Cc2cccc(C#N)c2)C1` (stereo not shown) [9-[(3-cyanophenyl)methyl]-3-pentyl-2,3,4,9-tetrahydro-1H-carbazole-8-carboxylic acid], the inhibition at 1 µM turned out to be 57.4% and the inhibition at 10 µM was determined as 83.3%.

For `CCCC1CCc2c(n(Cc3cccc(C(N)=O)c3)c3c(C(=O)O)cccc23)C1` (stereo not shown) [9-[(3-carbamoylphenyl)methyl]-2-propyl-2,3,4,9-tetrahydro-1H-carbazole-8-carboxylic acid], the inhibition at 1 µM is 83.6% and the inhibition at 10 µM was 88%.

Consider `CCCCCCC1CCCc2c(n(Cc3cccc4ncoc34)c3c(C(=O)O)cccc23)C1` (stereo not shown) [5-[(1,3-benzoxazol-7-yl)methyl]-7-hexyl-5H,6H,7H,8H,9H,10H-cyclohepta[b]indole-4-carboxylic acid], for which the inhibition at 1 µM stood at 92% and the inhibition at 10 µM was found to be 95.3%.

As to `CCCCCCC1CCCc2c(n(Cc3ccc(C(N)=O)cc3)c3c(C(=O)O)cccc23)C1` (stereo not shown) [5-[(4-carbamoylphenyl)methyl]-7-hexyl-5H,6H,7H,8H,9H,10H-cyclohepta[b]indole-4-carboxylic acid], the inhibition at 1 µM turned out to be 77.7% and the inhibition at 10 µM was found to be 83.8%.

In the case of `CCCCCCC1CCCc2c(n(Cc3cccc(C#N)c3)c3c(C(=O)O)cc(F)cc23)C1` (stereo not shown) [5-[(3-cyanophenyl)methyl]-2-fluoro-7-hexyl-5H,6H,7H,8H,9H,10H-cyclohepta[b]indole-4-carboxylic acid], the inhibition at 1 µM came out at 87.3% and the inhibition at 10 µM was determined as 93.9%.

For `CCC1CCc2c1n(Cc1cccc(C#N)c1)c1c(C(=O)O)cccc21` (stereo not shown) [4-[(3-cyanophenyl)methyl]-3-ethyl-1H,2H,3H,4H-cyclopenta[b]indole-5-carboxylic acid], the inhibition at 1 µM is 54.8% and the inhibition at 10 µM turned out to be 86.2%.

As for `CCCCC1Cc2c(n(Cc3cccc(C(N)=O)c3)c3c(C(=O)O)cccc23)C1` (stereo not shown) [2-butyl-4-[(3-carbamoylphenyl)methyl]-1H,2H,3H,4H-cyclopenta[b]indole-5-carboxylic acid], the inhibition at 1 µM came out at 87.2% and the inhibition at 10 µM was 95.2%.

Consider `NC(=O)c1cccc(Cn2c3c(c4cccc(C(=O)O)c42)C(CCc2ccccc2)CCC3)c1` (stereo not shown) [9-[(3-carbamoylphenyl)methyl]-4-(2-phenylethyl)-2,3,4,9-tetrahydro-1H-carbazole-8-carboxylic acid], for which the inhibition at 1 µM came out at 44.1% and the inhibition at 10 µM was 77.9%.

Consider `CCCCC1CCCc2c(n(Cc3ccccc3C)c3c(C(=O)O)cccc23)C1` (stereo not shown) [7-butyl-5-[(2-methylphenyl)methyl]-5H,6H,7H,8H,9H,10H-cyclohepta[b]indole-4-carboxylic acid], for which the inhibition at 1 µM was determined as 101% and the inhibition at 10 µM was found to be 95.3%.

Turning to `CCCC1CCCCc2c1c1cccc(C(=O)O)c1n2Cc1cccc(C#N)c1` (stereo not shown) [5-[(3-cyanophenyl)methyl]-10-propyl-5H,6H,7H,8H,9H,10H-cyclohepta[b]indole-4-carboxylic acid], the inhibition at 1 µM stood at 73.3% and the inhibition at 10 µM amounted to 97.5%.

On to `CCCCCC1CCCCc2c1c1cccc(C(=O)O)c1n2Cc1cccc(C#N)c1` (stereo not shown) [5-[(3-cyanophenyl)methyl]-10-pentyl-5H,6H,7H,8H,9H,10H-cyclohepta[b]indole-4-carboxylic acid], for which the inhibition at 1 µM was determined as 44.3% and the inhibition at 10 µM worked out at 77%.

For `CCCCCCC1CCCc2c(n(Cc3ccc(C#N)cc3)c3c(C(=O)O)cccc23)C1` (stereo not shown) [5-[(4-cyanophenyl)methyl]-7-hexyl-5H,6H,7H,8H,9H,10H-cyclohepta[b]indole-4-carboxylic acid], the inhibition at 1 µM was 81.3% and the inhibition at 10 µM amounted to 84.7%.

On to `CCCC1CCc2c(n(Cc3cccc(C#N)c3)c3c(C(=O)O)cccc23)C1` (stereo not shown) [9-[(3-cyanophenyl)methyl]-2-propyl-2,3,4,9-tetrahydro-1H-carbazole-8-carboxylic acid], for which the inhibition at 1 µM was 55.6% and the inhibition at 10 µM was found to be 81.4%.

(Values after patent publication US12084419B2, “Cell metabolism modulating compounds and uses thereof” (CRESCENTA BIOSCIENCES, priority 2020, dated 2024).)
